Test: Human HepG2 cell viability assay in 384 well format
Format: toxicity, cell-based
Parameters: dose 125 nL, time 70.5 hour; cytotoxicity at 70.5 h: concentration not given beside the values
Details: HepG2 cells, read-out: Inhibition

Row | Structure (SMILES) | cytotoxicity at 70.5 h [%]
1 | CCOC(=O)[C@H]1[C@@H](O)C(=O)N(C)C12CCN(C(=O)c1ccccc1)CC2 | -2.45
2 | CN(c1cccnc1N1CCCC1)S(=O)(=O)c1cnn(C)c1 | 5.43
3 | Cc1nn(C)c2ncc(CN3CCN(Cc4ccco4)CC3)cc12 | -18.7
4 | Cc1nc(-c2cc(C(=O)N3CCN(C)CC3)c3ccccn23)cn1C | -0.647
5 | O=C1CCC2(CCN(Cc3ccc(F)cc3)CC2)N1Cc1ccccc1 | -5.78
6 | CCN(C)C(=O)c1cccc(S(=O)(=O)NCCc2csc(N)n2)c1 | 19.2
7 | COc1ccc(C)cc1NC(=O)c1c(C)cn(C)c1CC(=O)O | -11
8 | CC(C)n1c(C2CCCN(CC(=O)NC(N)=O)C2)nc2ccccc21 (configuration not stated) | -1.95
9 | O=S1(=O)[C@@H](c2ccccc2)[C@H](CO)CN1C1CC1 | -1.65
10 | COc1ccc(CN(Cc2ccco2)Cc2[nH]cnc2C)c(OC)c1 | -8.31
11 | COc1c(C(=O)NCc2cccnc2)nnn1Cc1ccc(C)cc1 | -15.1
12 | CO[C@H]1C[C@@H]2CN(C(=O)c3cc4cccc(F)c4[nH]3)C[C@@H]2C1 | -6.67
13 | CN(CCc1cn[nH]c1)C(=O)C(c1ccc(F)cc1)N(C)C (configuration not stated) | -9.33
14 | O=C(NCC1CCCO1)c1csc(Cc2ccccc2)n1 (configuration not stated) | 50.7
15 | Cc1cc2n(n1)CC(CNCc1ccccc1Cn1cccn1)CN2 (configuration not stated) | 4.35
16 | COC(=O)c1ccc2ccn(CC3COCCO3)c(=O)c2c1 (configuration not stated) | -8.18
17 | COCCOc1ccc(S(=O)(=O)Nc2cccc(O)c2F)cc1C | -7.45
18 | Cc1ccc(C(=O)N2CCC(Oc3cccc(C)c3C)CC2)c(=O)[nH]1 | -4.54
19 | NC(=O)N1CC[C@@H]2O[C@H](COCC(=O)N3CCCC3)CC[C@@H]21 | -0.223
20 | CCC[C@@H]1CN(C(=O)Cc2sc(C)nc2C)C[C@H]1C(=O)O | -5.07
21 | CN(C)C(=O)[C@H]1C[C@@H]2CN(C(=O)NCC3CCCCC3)C[C@H]1O2 | -0.82
22 | c1ccc(N2CCC(NCCc3ccc(-n4cccn4)cc3)CC2)nc1 | 21.5
23 | CN(C)C(=O)CN1CCOCC2(CCN(CC3CCOCC3)CC2)C1 | -7.63

Row | Structure (SMILES) | cytotoxicity at 70.5 h [%]
24 | COCCNc1ccc(CNC(=O)Nc2cn[nH]c2)cc1 | -16.6
25 | COc1cc(C(C)=O)ccc1SCC(=O)Nc1ccc(C)cn1 | -7.73
26 | Cc1cccc(CNCc2c(C(C)C)nn(C)c2N2CCOCC2)n1 | 0.6
27 | CC(C)NC(=O)c1ccc2nnc(C3CCN(C(=O)NC(C)C)C3)n2c1 (configuration not stated) | -0.652
28 | Cc1nc(C)n(CC2CCCN(CCOc3ccc(C#N)cc3)C2)n1 (configuration not stated) | -11.5
29 | COc1ccc(F)c(CN2CCCC(O)(CNCc3ccoc3)C2=O)c1 (configuration not stated) | -0.0121
30 | CC(C)(C)N1CCN(C(=O)Nc2cc(C(F)(F)F)c[nH]c2=O)CC1 | 10.7
31 | CNC(=O)c1cccc(NC(=O)NCc2ccccc2)c1C | -10.1
32 | c1ccc(OC[C@]23COC[C@H]2CN(C2CCOCC2)C3)nc1 | -9.47
33 | CC(C)c1ccc(O)c(C(=O)N2CCN(Cc3cscn3)CC2)c1 | -15.1
34 | Nc1cc(-c2cncnc2C2CCN(C(=O)c3ccccc3)C2)ccn1 (configuration not stated) | 2.08
35 | COCc1nn(C)c2c1CN(C(=O)c1ccno1)CC2 | -9.37
36 | Cc1cc2nc(CN(C)c3ccccc3)cc(=O)n2o1 | 3.13
37 | Cc1noc(C)c1C(=O)N1CCC(Nc2cccnn2)CC1 | 0.523
38 | CCN(Cc1ccco1)C(=O)NCc1nnc2n1CCCCC2 | 5.47
39 | Cc1csc(CN2CC[C@H]3O[C@H](C(=O)Nc4cccnc4)CC[C@H]32)n1 | 8.96
40 | Cc1ccc(-c2cn3c(n2)CO[C@@H](CNCc2cccnc2)C3)cc1 | 11
41 | O=S(=O)(N1CCOCC1)N1CCC(Oc2cnccn2)CC1 | 0.596
42 | CCOCC1CN(C(=O)C2CCOCC2)Cc2cnn(C)c21 (configuration not stated) | 17.4
43 | CSCc1noc(CN2CCC3(CC2)CC(=O)N(CC(C)C)C3)n1 | -2.72
44 | O=C(CCc1ccsc1)N1CCC(Nc2cccnn2)CC1 | -3.07
45 | O=C(O)c1c(-c2cncnc2)ncc2c1CCN(Cc1ccco1)C2 | 24.2
46 | Cc1nnc(N2CCOC(C)(C(=O)NC3CCCC3)C2)c2ccccc12 (configuration not stated) | -3.81

Row | Structure (SMILES) | cytotoxicity at 70.5 h [%]
47 | Cc1csc(C2CCCCN2C(=O)c2cnn3ccc(C)nc23)n1 (configuration not stated) | -18.6
48 | Cn1cc(C(=O)N[C@@H]2CN(Cc3ccc(F)cc3)[C@@H]3CCCO[C@@H]32)cn1 | -4.56
49 | COc1cccc(CN2CCc3nc4ccsc4c(=O)n3CC2)c1 | 12.2
50 | CC1CN(Cc2ccccc2)CCCN1CCCS(C)(=O)=O (configuration not stated) | -4.81
51 | N#CCSCCCN1CCN(C(=O)c2ccc(Cl)cc2)CC1 | 6.83
52 | Cc1nn(C)c(C)c1CN(Cc1cccn1-c1cccnc1)C(C)C | 11.8
53 | CCn1c(C)nnc1SCCNc1cc(N2CCOCC2)ncn1 | -18.8
54 | CCc1nc2n(n1)CC(NCC(=O)Nc1cc(C(C)(C)C)no1)CC2 (configuration not stated) | -0.0913
55 | CCc1nsc(N2CCN(Cc3ccno3)CC2)n1 | -0.144
56 | Cc1cccc(CNC(=O)CNc2cc(CO)ccc2Cl)c1 | -3.8
57 | CNS(=O)(=O)CCCN1CCCC1c1noc(C)n1 (configuration not stated) | -3.7
58 | CCOCC(O)CNc1cncc(Br)c1 (configuration not stated) | -1.77
59 | COCc1cnc2n1CCN(C(=O)C1=CCCCC1)C2C (configuration not stated) | 17.6
60 | Cc1cnc(NCCc2c[nH]cn2)nc1-c1ccnn1C | -11.6
61 | CCOc1ncccc1C(=O)N1CCCC(n2nc(C)nc2C)C1 (configuration not stated) | -11.7
62 | CCOCCCNC(=O)c1cc(C)nc(N2CCCC2)n1 | 21.7
63 | CO[C@H]1CN(C(=O)c2ccc[nH]2)[C@@H]2COC[C@H]12 | -2.94
64 | Cc1ccccc1NC(=O)N1CC[C@@H]2CN(C)S(=O)(=O)[C@@H]2CC1 | -8.26
65 | CCN1CCN(C2CCN(Cc3nc(CCOC)no3)CC2)C1=O | -3.79
66 | Cc1nccc(C(=O)N2CCCC2c2c(C)nn(C)c2C)n1 (configuration not stated) | 16.2
67 | O=C(Cc1cccs1)NC1CCN(c2cccc(F)c2)CC1 | 1.18
68 | NC(=O)CSCC(=O)NC1(c2cccc(Br)c2)CC1 | 32.5
69 | CCc1c(O)n(C(C)CC)c(SCC(=O)c2ccccc2)nc1=O (configuration not stated) | -8.65

Row | Structure (SMILES) | cytotoxicity at 70.5 h [%]
70 | Cc1ccnn1CCC(=O)N1CCCC[C@@]2(C)[C@@H]1CCC(=O)N2C | -4.62
71 | CCOc1ccc(N(CCC#N)C(=O)c2ccc(OC)nc2)cc1 | 1.85
72 | CCc1nc(C2CCCN2CC(=O)NCCOc2ccccc2)no1 (configuration not stated) | 11.4
73 | CNC(=O)[C@@H]1C[C@H]2CN(C(=O)c3ccccn3)C[C@H]2N1C(C)C | 15.1
74 | O=S(=O)(NCCC(O)c1cccs1)c1ccccc1 (configuration not stated) | -5.21
75 | COc1ccc([C@@H]2CN(c3cc(OC)ncn3)C[C@H]2N(C)C)cc1 | 22.1
76 | O=C1CCC2(CCN(CCSc3ccccc3)CC2)CN1CCCO | -1.81
77 | COC(CNC(=O)C1CCCC1)c1ccc(C)s1 (configuration not stated) | -1.8
78 | CC(=O)N1CCCn2nc(CNS(=O)(=O)c3cc(C)cs3)cc2C1 | -4.2
79 | COCCCNc1nccc(-c2c[nH][nH]c2=O)n1 | 22.8
80 | O=C(NCc1cccs1)NCC(O)(c1cccs1)C1CC1 (configuration not stated) | -12.2
81 | CCC(CO)N(Cc1ccccn1)C(=O)c1ccc(F)c(F)c1 (configuration not stated) | -6.83
82 | CC(C(=O)N1CCCCC1)n1nc(-c2cccs2)cc(N)c1=O (configuration not stated) | 14.9
83 | COc1ccc2nnc(CCCC(=O)NCc3ccccc3OC)n2n1 | -15.5
84 | CCCC(NC(=O)c1cc(C)ccc1C)c1nnn[nH]1 (configuration not stated) | 13.6
85 | O=c1cc(N2CCCCC2)cnn1C[C@H](O)CO | -3.44
86 | Cn1cccc1C(=O)N1C[C@H]2CN(CC3CC3)C(=O)[C@H]2C1 | 6.81
87 | CN(C)CCN1CCN(C)c2nc(-c3ccccc3)ncc2C1=O | -9.02
88 | CN(Cc1ccsc1)C(=O)c1nc(N2CCCC2)ncc1Cl | -6.35
89 | COCCN1C(=O)CC[C@]12CC[C@@H](NCc1cccc(C)n1)CC2 | 0.785
90 | Cc1cnn(CC2CCCN2C(=O)c2cccc3[nH]ncc23)c1 (configuration not stated) | 1.32
91 | Cc1ccc2[nH]c(CN(C)c3cc(CCN)nc(C)n3)nc2c1 | -8.93
92 | CC(=O)NCCc1ncnn1-c1ccc(F)c(Cl)c1 | 7.55

Row | Structure (SMILES) | cytotoxicity at 70.5 h [%]
93 | Cc1nc2n(n1)CC(Nc1nc(-c3ccccc3)no1)CC2 (configuration not stated) | -0.185
94 | CC(C)CN1CCc2[nH]cnc2C12CCN(C(=O)c1ccnn1C)CC2 | -2.45
95 | C[C@@H]1CN(C(=O)CCN2CCCC2)CC[C@@]1(O)C1CCOCC1 | -6.69
96 | CCOCC(O)CN1CCN(C(=O)c2ccc3c(c2)COC3)CC1 (configuration not stated) | -8.02
97 | Cc1nc(CN2CCC(NS(C)(=O)=O)CC2)co1 | -9.09
98 | Cc1cccc2c1nc(CCO)n2-c1ccc(C(=O)N2CCOCC2)o1 | -1.12
99 | COCC(=O)N1CC[C@]2(O)CCN(C(=O)CCc3ccsc3)C[C@@H]2C1 | -10.1
100 | COc1ncnc2c1CCN(Cc1nccs1)CC2 | -8.56
101 | Cc1cccc(CN2C[C@@H]3OCCN(c4ccnc(N(C)C)n4)[C@@H]3C2)c1 | 10
102 | O=C(NC1CCCC1)c1nc(COc2ccc3c(c2)OCO3)no1 | -9.86
103 | Fc1ccc(C2CCCCN2Cc2cc(-c3ccccn3)no2)cc1 (configuration not stated) | 17.8
104 | COc1cc(C)c(-c2ccc(F)c3c2OC(CN)C3)cc1C (configuration not stated) | -0.0935
105 | CCC(=O)NS(=O)(=O)c1cccnc1Nc1cccc(Cl)c1Cl | 31.6
106 | Fc1ccc(CN2C[C@@H](OCc3ccccn3)[C@H]3COC[C@H]32)cc1 | -1.1
107 | O=c1[nH]cc(N2CCCCCC2)c(=O)[nH]1 | 9.28
108 | CCN1CCCN(c2ncccc2C(=O)N2CCCCC2)CC1 | 9.71
109 | Cc1cc(-c2cnc(N3CCC(O)CC3)nc2-c2cccnc2C)on1 | 8.43
110 | COc1ncc(NC(=O)Nc2cc(C)ccc2OC)cn1 | 39.1
111 | Cn1ccnc1CN1CCCN(C(=O)c2cccc(CC#N)c2)CC1 | 11.5
112 | CCS(=O)(=O)N1CCCCC1c1nc(C(C)C)no1 (configuration not stated) | 7.03

From ChEMBL document CHEMBL3507680, “University of Dundee, Gates Library screen for HepG2 cell viability”
